These results are taken from PubChem BioAssay (NCI).

Among the test systems are 786-0 renal; ACHN renal; HCT-116 colon; HL-60(TB) leukemia; IGROV1 ovarian; NCI-H226 lung; RXF 393 renal; SF-539 CNS; SK-MEL-28 melanoma; SK-OV-3 ovarian.
Common to all, as to assay: NCI anticancer screen, dose series, 48 h

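All cell lines were grown in 96-well plates and treated with compound for 48 hours. GI50 marks 50% less growth. TGI: concentration producing complete growth inhibition.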

For `CN(C)CCNc1nc2ccccc2c2c1c1c(n2Cc2ccccc2)-c2ccccc2C1=O`, the GI50 in the assay on 786-0 renal was 19.2 µM; in the assay with ACHN renal, 6.43 µM; in the assay on HCT-116 colon, 4.67 µM; in the assay with HL-60(TB) leukemia, 15.2 µM; with IGROV1 ovarian, 12.1 µM; in the assay on NCI-H226 lung, 20.2 µM. Also, the GI50 with RXF 393 renal was 11.5 µM; in the assay with SF-539 CNS, 14 µM; with SK-MEL-28 melanoma, 16.8 µM; in the assay on SK-OV-3 ovarian, 20.3 µM. The TGI turned out to be 38.3 µM in the assay with 786-0 renal; 20.7 µM with ACHN renal; 25.2 µM in the assay with HCT-116 colon; 34.1 µM with HL-60(TB) leukemia; 49.5 µM in the assay on IGROV1 ovarian; 50.3 µM in the assay with NCI-H226 lung. Further, the TGI with RXF 393 renal was 37.6 µM; in the assay on SF-539 CNS, 29.4 µM; in the assay on SK-MEL-28 melanoma it was 32.3 µM; with SK-OV-3 ovarian, 45.1 µM.
